Source: paper PMC3968004, “The Relevance of Testing the Efficacy of Anti-Angiogenesis Treatments on Cells Derived from Primary Tumors: A New Method for the Personalized Treatment of Renal Cell Carcinoma” (PLoS ONE, 2014)

Legend:
[1] = test system: ERK, AKT and S6K activity in M cells; experiment: Immunoblotting of signaling pathways in M cells; assay type: cell-based, human
Description: The following antibodies were used for Western blotting: anti-phospho ERK 1,2 (Sigma St Louis, MO, Reference M8159)), anti-phospho Akt, anti-Akt and anti-phospho S6 Kinase (Cell Signaling, Cambridge, UK, respectively References 4051, 9272, 9234) and anti-TFE3 anti ERKs (Santa Cruz Biotechnology, Santa Cruz, CA references sc 5958 (TFE3) and sc 93 (ERK)).
The effects of the different drugs on proliferation are correlated with the activity of intracellular signaling pathways (ERK and PI3 kinase/AKT/mTOR/S6 kinase (S6K)) in TF cells. […] The effects of the different drugs on signaling pathways have been tested in CC and M cells. […] Everolimus inhibited S6K with reactivation of AKT.
Supplementary file pone.0089449.s001.tif: Figure S1 In vitro sensitivity of the CC and M cells to the different drugs used to treat the patients; specific impact on downstream signaling pathways. A) The activity of major signaling pathways (ERK, PI3K/AKT/mTOR/S6K) in response to the different treatments (sunitinib (Su), sorafenib (So) and everolimus (Ev)) was determined by analysis of the presence of the phosphorylated forms of the kinases (pERK, pAKT, pS6K) in TF cells following a short-term treatment (two hours) by immunoblotting. Tubulin is shown as a loading control. […]

[2] = test system: subcutaneous xenografts of TFE3 RCC cells; experiment: Tumor xenografts of TF cells in nude mice; assay type: in vivo, nude (nu/nu) female mice; conditions: TF cell xenografts; for percentage of mice with decrease (D) of the tumor size / percentage of mice with progression (P) of the tumor size / percentage of mice with stabilization (S) of the tumor size: daily gavage for fifteen days, sunitinib 40 mg/kg or sorafenib 80 mg/kg; for percentage of mice with stabilization (S) of the tumor size: stable = change not exceeding 1.5-fold; for percentage of tumor that does not progress: stable plus decreased tumors
Description: This study was carried out in strict accordance with the recommendations in the Guide for the Care and Use of Laboratory Animals of Centre National de la Recherche Scientifique (CNRS). All efforts were made to minimize suffering. Our experiments were approved by the “Comité national institutionnel d'éthique pour l'animal de laboratoire (CIEPAL)”. The project is registered under the reference: NCE/2013-97. The mice were housed under strict pathogen-free conditions and given sterile food and water. Animals were housed 5 per cage. 10^7 cells were injected subcutaneously into the flank of 5-week-old nude (nu/nu) female mice (Janvier, France) under sodium pentobarbital anesthesia. The tumor volume was determined by using a caliper (v = L×l^2×0.52 [18]). When the tumor reached 100 mm3, mice were treated by daily gavage for fifteen days with placebo (dextrose-water vehicle), sunitinib (40 mg/kg) or sorafenib (80 mg/kg). The ratio between the size of the tumor before and at the end of treatment for each tumor was measured.
The capacity of the drugs to reduce or stabilize tumor growth was tested on subcutaneous xenografts of TFE3 RCC cells in nude mice. The tumor growth was rather long (three months), a result compatible with previous results obtained on direct grafting of tumor fragments of RCC in mice. […] Without any treatment tumors progressed (40%) or remained stable (40%) (Fig. 5A). […] In the presence of sorafenib, the growth of most of the tumors was stable (45%). […] Another striking observation was the presence of a majority of cells with clear cytoplasm on HES staining for stable tumors or tumors that regressed during treatment (Fig. 5B). This cytological feature was the same in the initial tumor.
Figure 5 In vivo sensitivity of the TF cells to the different drugs used to treat the patient. A) 10^7 cells were subcutaneously injected into nude mice. When the tumor was visible mice were treated with sunitinib or sorafenib for 15 days. Tumor size was evaluated with a caliper. The percentage of mice with progression (P), decrease (D) or stabilization (S) of the tumor size is indicated. B) The general histological aspect of a progressing tumor (P) or a regressing (D) tumor is shown for the different situations (Control, sunitinib, sorafenib). The percentage of clear zones in stable or responsive tumors was evaluated using the Leica software SlidePath Gateway. Statistical analysis was performed using a student's t test (* p<0.05). TEXT PRINTED IN THE PICTURE: (A) Sunitinib: P: 33 %; S: 17 %; D: 50 % | (A) Sorafenib: P: 22 %; S: 45 %; D: 33 %

Row | SMILES | S6K activity [1] | number of clear zones in tumors (HES staining) ([2]; compared with control) | percentage of mice with decrease (D) of the tumor size [2] [%] | percentage of mice with progression (P) of the tumor size [2] [%] | percentage of mice with stabilization (S) of the tumor size [2] [%] | percentage of tumor that does not progress [2] [%]
1 | CO[C@H]1C[C@@H]2CC[C@@H](C)[C@@](O)(O2)C(=O)C(=O)N2CCCC[C@H]2C(=O)O[C@H]([C@H](C)C[C@@H]2CC[C@@H](OCCO)[C@H](OC)C2)CC(=O)[C@H](C)/C=C(\C)[C@@H](O)[C@@H](OC)C(=O)[C@H](C)C[C@H](C)/C=C/C=C/C=C/1C [everolimus] | strong inhibition |  |  |  |  | 
2 | CNC(=O)c1cc(Oc2ccc(NC(=O)Nc3ccc(Cl)c(C(F)(F)F)c3)cc2)ccn1 [sorafenib] |  | significant increase | 33 | 22 | 45 | 78
3 | CCN(CC)CCNC(=O)c1c(C)[nH]c(/C=C2\C(=O)Nc3ccc(F)cc32)c1C [sunitinib] |  |  | 50 | 33 | 17 | 67
